Data reported in PubChem BioAssay AID790 (SRMLSC, 2007).
Active and inactive are the calls of the source. No rule for the calls is given here.

Key:
[1] = growth inhibition of yeast vps1Δ mutant, dose response, S. cerevisiae, background strain comparison (AID 790); settings: S. cerevisiae vps1Δ mutant growth inhibition; for IC50: measured here: background strain growth inhibition; for growth inhibition: at 25 µM (top of the series)
[2] = test system: S. cerevisiae vps1Δ mutant growth inhibition; test: as above

SMILES	IC50 [1] [µM]	IC50 [2]	growth inhibition [1]
CC(NC(=O)CSc1nc2c(cc1C#N)CN(C)CC2)c1ccccc1 (stereo not drawn)	> 10	> 10 µM (inactive)	
Cc1cc(Cl)cc(C)c1OCCCCN1CCOCC1	> 10	> 10 µM (inactive)	
O=C1C=C(c2ccccc2)C(=O)N1Nc1ccccc1		22.5 µM	
O=C(Nc1ccccc1)C1=C(O)CC(c2ccco2)CC1=Nc1ccccc1 (stereo not drawn)	> 10	> 10 µM (inactive)	
Nc1ccc(Oc2ccc3nc(-c4ccccc4)c(-c4ccccc4)nc3c2)cc1	1.21	2.91 µM (inactive)	
CCn1c(SCC(=O)N2CCCc3ccccc32)nnc1-c1ccco1	> 10	> 10 µM (inactive)	
Cc1cccc(CS(=O)(=O)Cc2ccc(C(=O)NCCCN3CCCC3)o2)c1	> 10	> 10 µM (inactive)	
c1coc(CNc2nc(N3CCCCC3)nc3ccccc23)c1	> 10	> 10 µM (inactive)	
CC1CCCCC1NC(=O)CSc1nnnn1-c1ccccc1 (stereo not drawn)	> 10	> 10 µM (inactive)	
ON=Cc1cccn1-c1ccccc1	> 10	> 10 µM (inactive)	
CCOc1cc(/C=C\[N+](=O)[O-])ccc1OCC(=O)Nc1ccccc1C	> 10	25.4 µM	
Cc1ccc(CN2CCN(/N=C/c3cc(Br)ccc3O)CC2)cc1	> 10	> 10 µM (inactive)	
O=C(NC1CCCC1)C(c1ccsc1)N(C(=O)Cc1cccs1)c1ccc(F)cc1 (stereo not drawn)	> 10	> 10 µM (inactive)	
Fc1ccc(-c2noc(C3CCN(Cc4cccnc4)CC3)n2)cc1	> 10	> 10 µM (inactive)	
CCCc1cc(NCCCCO)n2c(nc3ccccc32)c1C#N	> 10	> 10 µM (inactive)	
O=C(Nc1nnc(-c2ccccc2)o1)c1ccc(Cl)cc1	0.65	0.418 µM	
CCC(=O)N(CCO)Cc1cc2ccc(C)c(C)c2[nH]c1=O	> 10	> 10 µM (inactive)	
Cc1cc(N2C(=O)C3CCCN3C2c2sccc2C)no1 (stereo not drawn)	> 10	> 10 µM (inactive)	
C=C(C)COc1ccc(-c2ncncc2Oc2ccc(OC)cc2)c(O)c1	> 10	> 10 µM (inactive)	
Cc1cc(=O)oc2c(CN3CCCCC3)c(O)c(Cl)cc12	> 10	> 10 µM (inactive)	
O=C1c2ccccc2C(=O)c2c1oc(C(F)(F)F)c2C(=O)c1ccccc1	2.2	1.3 µM	
CCOC(=O)C1=C(N)N2C(=O)C(C)SC2=C(C(=O)OC)C1c1ccccc1OC (stereo not drawn)	0.163	> 10 µM (inactive)	
Nc1cc(N)c(OCC(F)(F)F)cc1OCC(F)(F)F	> 10	> 10 µM (inactive)	

SMILES	IC50 [1] [µM]	IC50 [2]	growth inhibition [1]
O=C(COc1ccc(Cl)cc1Cl)NCCCN1CCOCC1	> 10	> 10 µM (inactive)	
Cc1ccc(CSc2nc3ccccc3cc2C=O)cc1	2.1	1.99 µM	
Cc1cc(C)n2nc(C(=O)NCc3ccccc3)cc2n1	> 10	> 10 µM (inactive)	
CC1CCCCN1CCNC(=O)Cn1nc(-c2ccccc2)ccc1=O (stereo not drawn)	> 10	> 10 µM (inactive)	
COc1ccc(NC(=S)NC(NC(=O)c2ccc(Cl)cc2Cl)C(Cl)(Cl)Cl)c([N+](=O)[O-])c1 (stereo not drawn)	> 10	> 10 µM (inactive)	
CCCCC(c1nnnn1Cc1ccco1)N1CCN(c2nc3ccccc3s2)CC1 (stereo not drawn)	3.9		
O=C(Nc1nnc(C2CC2)o1)c1ccc(S(=O)(=O)N2CCCc3ccccc32)cc1	3.17	11.9 µM (inactive)	
CCc1ccc(N(C(=O)c2csnn2)C(C(=O)NC(C)(C)C)c2ccncc2)cc1 (stereo not drawn)	> 10	> 10 µM (inactive)	
O=S1(=O)C=C(Sc2nnc(-c3ccccc3)o2)c2ccccc21		24.2 µM	
Cc1ccc(SC(=O)COc2ccc(C)c(C)c2)cc1	> 10	> 10 µM (inactive)	
CCCn1nc([N+](=O)[O-])c(C(C#N)c2nc3ccccc3s2)c(Cl)c1=O (stereo not drawn)	2.16	1.5 µM	
CCSc1nnc(NC(=O)NCC(F)(F)F)s1	> 10	> 10 µM (inactive)	
CCN(CC)C(=O)C1CCN(Cc2ccc(Br)cc2)CC1	> 10	> 10 µM (inactive)	
O=C(Nc1nnc(-c2ccc3c(c2)CCCC3)o1)c1ccccc1Cl	10.7	1.58 µM	
CCOC(=O)C(C)Oc1ccc2c(C)cc(=O)oc2c1C(C)=O (stereo not drawn)	> 10	> 10 µM (inactive)	
CCCCCCCCNc1ncnc2ccccc12	14.8	> 10 µM (inactive)	
Cc1cc(O)c(/C=N/Nc2ccc(Cl)cc2)c(=O)o1	4.69	5.43 µM (inactive)	
CCCCSCCCNC(=O)Nc1cccc(OC)c1	> 10	> 10 µM (inactive)	
N#Cc1nc(COc2ccc(-c3ccccc3)cc2)oc1NCCCN1CCOCC1	15.4	21.4 µM (inactive)	
Cc1ccc(C(=O)OCn2ncc(Cl)c(Cl)c2=O)cc1	4.62	4.06 µM	
CCOC(=O)c1ccc(NC(=O)c2cn(-c3ccccc3)nc2-c2ccncc2)cc1	11.5	> 10 µM (inactive)	
CCOC(=O)N1CCN(c2ccc(S(=O)(=O)N(Cc3ccccc3)Cc3ccccc3)cn2)CC1	> 10	> 10 µM (inactive)	
CC(=O)c1ccc(N2CCN(C(=O)c3ccc(Br)cc3)CC2)c(F)c1	6.58	1.52 µM	

SMILES	IC50 [1] [µM]	IC50 [2]	growth inhibition [1]
COc1ccc2oc(=O)c(-c3nnc(NCc4ccco4)s3)cc2c1	> 10	> 10 µM (inactive)	
CCN(CC)c1nc2cc(OC)ccc2cc1C#N	> 10	> 10 µM (inactive)	
O=c1cccc2n1CC1CC2CN(S(=O)(=O)c2ccccc2)C1 (stereo not drawn)	> 10	> 10 µM (inactive)	
CCOC(=O)C1CCN(Cc2cnc(Oc3ccc(Cl)cc3C)s2)CC1	> 10	> 10 µM (inactive)	
Cc1nc(NC(=O)c2ccccc2)sc1-c1csc(NCc2ccccc2)n1	> 10	1.96 µM	
Cc1ccc(C(=O)NCc2occc2C(=O)O)o1	> 10	> 10 µM (inactive)	
O=C(Cc1cccs1)Nc1nc2c(s1)CCCC2	> 10	> 10 µM (inactive)	
CCOc1ccc(NC(=O)C/C(N)=N/O)cc1	> 10	> 10 µM (inactive)	
O=S(=O)(c1ccc(Cl)cc1)N1CCN(C2CCN(Cc3ccccc3)CC2)CC1	> 10	> 10 µM (inactive)	
COc1cc2[nH]c(=S)n(CCCN3CCOCC3)c(=O)c2cc1OC	> 10	> 10 µM (inactive)	
CCN1CCN(c2c(Cl)cccc2NC(=O)c2ccc(Br)o2)CC1	> 10	> 10 µM (inactive)	
CCCCCOc1ccc(CN2CCOCC2)cc1Cl	> 10	> 10 µM (inactive)	
CCOc1nc(SCCOc2ccccc2)nc(N(C)C)n1		> 10 µM (inactive)	
O=C(NCC1COc2ccccc2O1)c1ccc(Cl)cc1 (stereo not drawn)		3.31 µM	
OC(COCc1ccc(Cl)cc1)CN1CC=C(c2ccccc2)CC1 (stereo not drawn)	20.8		
N#Cc1ccccc1Cn1cc(C(=O)c2cccs2)c2ccccc21		> 10 µM (inactive)	
O=C(NCC(c1cccnc1)N1CCN(c2ccc(F)cc2)CC1)OCc1ccccc1 (stereo not drawn)		22.4 µM	
N=c1c2c(-c3ccccc3)c(-c3ccccc3)n(Cc3ccco3)c2ncn1Cc1ccccc1		> 10 µM (inactive)	
Cc1cccc(N2CCN(CC(=O)Nc3nccs3)CC2)c1C	> 10		31.3% (inactive)
Cc1nc(NC(=O)c2ccccc2)sc1-c1csc(Nc2ccc(F)cc2)n1	> 10		
COc1ccc(OCCSc2nnc3sc4ccccc4n23)cc1		> 10 µM (inactive)	
O=C(OCn1ncc(Br)c(Br)c1=O)c1ccccc1Cl		6.69 µM	
CC12CCC(c3c(C(=O)Nc4nccs4)nn(-c4ccccc4)c31)C2(C)C (stereo not drawn)		> 10 µM (inactive)	

SMILES	IC50 [1] [µM]	IC50 [2]	growth inhibition [1]
O=C(Nc1nnc(-c2ccc3c(c2)CCCC3)o1)c1ccccc1		0.8 µM	
CC(C)c1ccc(C(=O)CSc2n[nH]c(-c3ccncc3)n2)cc1		> 10 µM (inactive)	
Cc1[nH]nc(N=CC2=C(O)CC(C)(C)CC2=O)c1-c1ccc(Cl)cc1		> 10 µM (inactive)	
Cc1nn(Cc2cccc(C(=O)NC(C)c3ccc(C(C)(C)C)cc3)c2)c(C)c1[N+](=O)[O-] (stereo not drawn)	> 10		23.6% (inactive)
CCCCCCOc1ccc(CN2CCN(CCO)CC2)cc1		> 10 µM (inactive)	
CCOC(=O)c1c(-n2c(C)cc(C=C3C(=O)NC(=S)NC3=O)c2C)sc2c1CCCC2	11.5		
OC(c1ccc(Cl)cc1Cl)C(Cc1cccnc1)n1cncn1 (stereo not drawn)	> 10		
CCOc1ccc(NC(=O)N(C2CCCCC2)C(C)c2cccnc2)cc1 (stereo not drawn)		15.6 µM	
CC1CCN(S(=O)(=O)c2ccc(NC(=O)CCN3C(=O)c4ccccc4C3=O)cc2)CC1		> 10 µM (inactive)	
CC1CCC(C(C)C)C(OCC(O)CN2CCN(Cc3ccccc3)CC2)C1 (stereo not drawn)		> 10 µM (inactive)	
N[C@@H](Cc1c[nH]c2ccccc12)c1nnc(SCc2ccc(Cl)cc2)o1	20.4		
O=C(CN1CCN(c2ccccn2)CC1)Nc1ccc(Oc2ccccc2)cc1		> 10 µM (inactive)	
O=S(=O)(Cc1ccccc1Cl)N1CCN(Cc2ccc3c(c2)OCO3)CC1		> 10 µM (inactive)	
O=S1(=O)C=C(Sc2nc3ccccc3s2)c2ccccc21		> 10 µM (inactive)	
O=C(Nc1nnc(-c2cccs2)o1)c1cccc(C(F)(F)F)c1		1.67 µM (inactive)	
CC(c1nnc(SCn2nnc3ccccc3c2=O)n1-c1ccc(Cl)cc1)N(C)C (stereo not drawn)		5.55 µM	
CC(Sc1ccsc1[N+](=O)[O-])C(=O)NCCc1ccc(Cl)cc1 (stereo not drawn)		> 10 µM (inactive)	
C=C(C)C1CC=C(CN2CC(C)OC(C)C2)CC1 (stereo not drawn)	> 10		
O=C(C1CCCN(S(=O)(=O)c2ccc(Cl)cc2)C1)N(Cc1cccs1)C1CC1 (stereo not drawn)		9.94 µM	
O=[N+]([O-])c1cc(Cl)cc(/C=N\Nc2ccccn2)c1O		3.42 µM	
O=C(OCn1ncc(Br)c(Br)c1=O)c1c(F)cccc1F		16.2 µM	
Cc1ccc(C(=O)Nc2ccc(Cc3ccncc3)cc2)cc1[N+](=O)[O-]		23.6 µM	
